This is an account of results in patent US11203602B2, “Thioester prodrugs of macrocycles as inhibitors of histone deacetylases” (OnKure, Inc., priority 2016, dated 2021).

In general, solubility refers to the concentration that dissolves in the medium under given conditions. A word on the AUC(0-inf): it is total exposure, with the tail of the curve extrapolated. Higher therefore signals more exposure. As a reminder, the Cmax is the maximum level reached in the sampled fluid or tissue. As usually defined, the Tmax is the time from dosing to the highest level. A word on the half-life: it is the time needed for the level to fall by half in the phase considered. Read a high half-life as slow loss. For orientation: IC50 means the concentration at which inhibition is half-maximal. As usually defined, the GI50 is the concentration that inhibits growth by half.

Converted amounts (≈) assume the structure as drawn. Counter-ions that a name gives are not always drawn.

A short description of data set [1]: Aqueous solubility at two pH levels. It counts as physicochemical. As to conditions: aqueous solution.
The next data set can be described thus: Rat PK (p.o.). It counts as in vivo. As to conditions: plasma, po.
The subject of a further data set is melanoma cell lines. As to conditions: series of melanoma cell lines; Bowers et al. 2008; cited from earlier work.
In another data set the test system is HCT116 cells. The note with it: Ying et al. 2008b; cited from earlier work.
A further data set relates to HDAC. The note with it: cells treated with compound; Ying et al. 2008a; read-out: IC50 HDAC inhibition; cited from earlier work.
The subject of another data set is MDA-MB231. As to conditions: Taori et al. 2008; cited from earlier work.
The test system of data set [2] is HDAC proteins from class I and class II. The note with it: purified full length HDAC proteins; Bowers et al. 2008; cited from earlier work.
The next data set relates to HCT 116 cells. The note with it: Zeng et al. 2010; cited from earlier work.
For a further data set, the system named is HLF cells. As to conditions: HLF normal cell line; Zeng et al. 2010; cited from earlier work.
The subject of the next data set is HEK293. As to conditions: HEK293 normal cell line; Zeng et al. 2010; cited from earlier work.
The mark [3] stands for this setting: 10 mg/kg, Vehicle (0.02N HCl sol.).
The mark [4] stands for this setting: 15 mg/kg, Vehicle (0.1N citrate buffer).

Take `CC(C)[C@@H]1NC(=O)C(C)(C)NC(=O)c2csc(n2)CNC(=O)C[C@@H](/C=C/CCSC(=O)[C@H](N)C(C)C)OC1=O.Cl` [Example 1, (R)—S-((E)-4-((7S,10S)-7-isopropyl-4,4-dimethyl-2,5,8,12-tetraoxo-9-oxa-16-thia-3,6,13,18-tetraazabicyclo[13.2.1]octadeca-1(17),15(18)-dien-10-yl)but-3-en-1-yl) 2-amino-3-methylbutanethioate Hydrochloride]: in data set [1] (pH 3, aqueous buffer), the solubility came out at 8.67 mg/mL. Moreover, the solubility in data set [1] (pH 6, aqueous buffer) is 10.5 mg/mL. Besides, in the data set “Rat PK (p.o.)” (setting [3]), the AUC(0-inf) was determined as 0.257 µg·h/mL, the Cmax worked out at 0.086 µg/mL, the Tmax is 0.42 h and the half-life is 8.53 h.

For the molecule `CC(C)[C@H](N)C(=O)SCC/C=C/[C@@H]1CC(=O)NCc2nc(cs2)C(=O)NC(C)(C)C(=O)N[C@@H](C(C)C)C(=O)O1.Cl` [Example 2, (S)—S-((E)-4-((7S,10S)-7-isopropyl-4,4-dimethyl-2,5,8,12-tetraoxo-9-oxa-16-thia-3,6,13,18-tetraazabicyclo[13.2.1]octadeca-1(17),15(18)-dien-10-yl)but-3-en-1-yl) 2-amino-3-methylbutanethioate Hydrochloride], the solubility in data set [1] (pH 3, aqueous buffer) is 12.3 mg/mL. Further, in [1] (pH 6, aqueous buffer), the solubility stood at 18 mg/mL. For the same molecule, in “Rat PK (p.o.)” (setting [3]), the AUC(0-inf) stood at 0.267 µg·h/mL, the Cmax was 0.123 µg/mL, the Tmax was found to be 0.48 h and the half-life is 8.23 h.

As for `CC(C)[C@H](N)C(=O)SCC/C=C/[C@@H]1CC(=O)NCc2nc(cs2)C(=O)NC(C)(C)C(=O)N[C@@H](C(C)C)C(=O)O1.O=S(=O)(O)c1ccccc1` [Example 3, (S)—S-((E)-4-((7S,10S)-7-isopropyl-4,4-dimethyl-2,5,8,12-tetraoxo-9-oxa-16-thia-3,6,13,18-tetraazabicyclo[13.2.1]octadeca-1(17),15(18)-dien-10-yl)but-3-en-1-yl) 2-amino-3-methylbutanethioate Benzenesulfonate], the solubility in [1] (pH 3, aqueous buffer) stood at 7.5 mg/mL. Besides, in “Rat PK (p.o.)” (setting [4]), the AUC(0-inf) is 0.583 µg·h/mL, the concentration peaked (Cmax) at 0.253 µg/mL, the Tmax is 0.6 h and the half-life was 12.4 h.

In turn, `CC(C)[C@@H]1NC(=O)C(C)(C)NC(=O)c2csc(n2)CNC(=O)C[C@@H](/C=C/CCSC(=O)[C@H](C)N)OC1=O` [Example 4, (S)—S-((E)-4-((7S,10S)-7-isopropyl-4,4-dimethyl-2,5,8,12-tetraoxo-9-oxa-16-thia-3,6,13,18-tetraazabicyclo[13.2.1]octadeca-1(17),15(18)-dien-10-yl)but-3-en-1-yl) 2-aminopropanethioate Oxalate] came in with a solubility in data set [1] (pH 3, aqueous buffer) of 15.4 mg/mL. In data set [1] (pH 6, aqueous buffer), this molecule came in with a solubility of 25.2 mg/mL. Moreover, in “Rat PK (p.o.)” (setting [3]), the AUC(0-inf) stood at 0.176 µg·h/mL, the Cmax stood at 0.051 µg/mL, the Tmax was 1 h and the half-life is 6.09 h.

Regarding `CC(C)[C@@H]1NC(=O)C(C)(C)NC(=O)c2csc(n2)CNC(=O)C[C@@H](/C=C/CCSC(=O)[C@@H](C)N)OC1=O` [Example 5, (R)—S-((E)-4-((7S,10S)-7-isopropyl-4,4-dimethyl-2,5,8,12-tetraoxo-9-oxa-16-thia-3,6,13,18-tetraazabicyclo[13.2.1]octadeca-1(17),15(18)-dien-10-yl)but-3-en-1-yl) 2-aminopropanethioate Oxalate], the solubility in data set [1] (pH 3, aqueous buffer) is 45.5 mg/mL; in data set [1] (pH 6, aqueous buffer), 41.8 mg/mL.

Turning to `CC(C)[C@@H]1NC(=O)C(C)(C)NC(=O)c2csc(n2)CNC(=O)C[C@@H](/C=C/CCSC(=O)CN(C)C)OC1=O` [Example 6, S-((E)-4-((7S,10S)-7-isopropyl-4,4-dimethyl-2,5,8,12-tetraoxo-9-oxa-16-thia-3,6,13,18-tetraazabicyclo[13.2.1]octadeca-1(17),15(18)-dien-10-yl)but-3-en-1-yl) 2-(dimethylamino)ethanethioate], the concentration in solution in [1] (pH 3, aqueous buffer) (solubility) was 2.45 mg/mL (≈ 4.32 mM). Moreover, the concentration in solution in data set [1] (pH 6, aqueous buffer) (solubility) was 2.32 mg/mL (≈ 4.09 mM). For the same molecule, in the data set “Rat PK (p.o.)” (setting [3]), the AUC(0-inf) came to 0.272 µg·h/mL, the peak level (Cmax) was 0.107 µg/mL, the Tmax was found to be 0.83 h and the half-life is 5.86 h.

For the molecule `CC(C)[C@@H]1NC(=O)C(C)(C)NC(=O)c2csc(n2)CNC(=O)C[C@@H](/C=C/CCSC(=O)c2cccnc2)OC1=O` [Example 7, S-((E)-4-((7S,10S,Z)-7-isopropyl-4,4-dimethyl-2,5,8,12-tetraoxo-9-oxa-3,6,13-triaza-1(4,2)-thiazolacyclotetradecaphane-10-yl)but-3-en-1-yl) pyridine-3-carbothioate], in the data set “Rat PK (p.o.)” (setting [3]), the AUC(0-inf) was determined as 0.24 µg·h/mL, the Cmax came out at 0.15 µg/mL, the Tmax amounted to 0.33 h and the half-life is 6.88 h.

In the case of `CC(C)[C@@H]1NC(=O)[C@]2(C)CSC(=N2)c2csc(n2)CNC(=O)C[C@@H](/C=C/CCS)OC1=O` [largazole thiol], the values for the IC50 in the data set with melanoma cell lines and in the data set with HDAC were 0.38 to 2.6 µM and 0.209 µM, respectively. Moreover, the GI50 in the data set on HCT116 cells was 0.038 µM.

Take `CCCCCCCC(=O)SCC/C=C/[C@@H]1CC(=O)NCc2nc(cs2)C2=N[C@@](C)(CS2)C(=O)N[C@@H](C(C)C)C(=O)O1` [largazole, Largazole]: the results for the IC50 in the data set on melanoma cell lines and in the data set with HDAC were 0.045 to 0.315 µM and 0.051 µM, respectively. Besides, the GI50 in the data set with HCT116 cells was 0.044 µM; in the data set with MDA-MB231 it was 0.0077 µM; with HCT 116 cells, 0.08 µM; with HLF cells, 0.98 µM; in the data set on HEK293, 1.36 µM. In addition, the “HDAC inhibition in vitro compared to the thiol” value in data set [2] was “much weaker HDAC inhibitor”. Also, the “preference for HDACs 1, 2, and 3 over HDAC6” value in [2] is “pronounced preference”.
